Data published in ChEMBL document CHEMBL6078714, “Discovery of N-Trifluoromethylated Noscapines as Novel and Potent Agents for the Treatment of Glioblastoma” (J Med Chem, 2025).
pIC50: −log10 of the molar value. The source made the active and inactive calls. The rule behind the calls is not given here.

Assays:
[1] = Stability of compound in 0.1M HCl solution at pH 1.0 assessed as parent compound remaining measured after 48 hrs by 1H NMR analysis; type: physicochemical; conditions: read-out: Stability
[2] = tested on: U-87 MG; assay: Antiproliferative activity against human U-87 MG cells assessed as inhibition of cell proliferation incubated for 72 hrs by CCK8 assay; type: functional, cell-based, U-87MG ATCC
[3] = tested on: U-118-MG; assay: Antiproliferative activity against human U-118-MG cells assessed as inhibition of cell proliferation incubated for 72 hrs by CCK8 assay; type: functional, cell-based
[4] = tested on: U-118-MG; assay: Antiproliferative activity against human U-118- MG cells assessed as inhibition of cell proliferation by crystal violet staining based analysis; type: functional; conditions: dose 10-40 µM
[5] = tested on: U-118-MG; assay: Induction of apoptosis in human U-118-MG cells incubated for 24 hrs by Annexin V-FITC/PI staining based flow cytometric analysis; type: functional, cell-based; conditions: dose 3-40 µM
[6] = tested on: U-118-MG; assay: Induction of apoptosis in human U-118-MG cells assessed as apoptotic rate at 20 uM incubated for 24 hrs by Annexin V-FITC/PI staining based flow cytometric analysis relative to control; type: functional
[7] = tested on: U-118-MG; assay: Induction of apoptosis in human U-118-MG cells assessed as downregulation of c-Myc expression level at 1 to 40 uM incubated for 24 hrs by Western blot analysis; type: functional, cell-based; conditions: dose 1-40 µM
[8] = tested on: U-118-MG; assay: Induction of apoptosis in human U-118-MG cells assessed as downregulation of Bcl-XL expression level at 1 to 40 uM incubated for 24 hrs by Western blot analysis; type: functional, cell-based; conditions: dose 1-40 µM
[9] = tested on: U-118-MG; assay: Inhibition of cell migration in human U-118-MG cells assessed as decrease in number of migrating cells at 0.1 uM incubated for 24 hrs by transwell assay; type: functional, cell-based
[10] = tested on: U-118-MG; assay: Inhibition of cell migration in human U-118-MG cells assessed as decrease in number of migrating cells at 1 uM incubated for 24 hrs by transwell assay; type: functional, cell-based
[11] = tested on: U-118-MG; assay: Cell cycle arrest in human U-118-MG cells assessed as accumulation of cells at G1 phase at 3 uM incubated for 24 hrs by flow cytometric analysis (reference value: 56.2 %); type: functional
[12] = tested on: U-118-MG; assay: Cell cycle arrest in human U-118-MG cells assessed as accumulation of cells at S phase at 3 uM incubated for 24 hrs by flow cytometric analysis (reference value: 10.7 %); type: functional
[13] = tested on: U-118-MG; assay: Cell cycle arrest in human U-118-MG cells assessed as accumulation of cells at G2 phase at 3 uM incubated for 24 hrs by flow cytometric analysis (reference value: 30.6 %); type: functional
[14] = tested on: U-118-MG; assay: Cell cycle arrest in human U-118-MG cells assessed as accumulation of cells at G2 phase at 10 uM incubated for 24 hrs by flow cytometric analysis (reference value: 30.6 %); type: functional
[15] = tested on: U-118-MG; assay: Cell cycle arrest in human U-118-MG cells assessed as accumulation of cells at G2 phase at 20 uM incubated for 24 hrs by flow cytometric analysis (reference value: 30.6 %); type: functional
[16] = tested on: U-118-MG; assay: Cell cycle arrest in human U-118-MG cells assessed as accumulation of cells at G1 phase at 30 uM incubated for 24 hrs by flow cytometric analysis (reference value: 56.2 %); type: functional
[17] = tested on: U-118-MG; assay: Cell cycle arrest in human U-118-MG cells assessed as accumulation of cells at S phase at 30 uM incubated for 24 hrs by flow cytometric analysis (reference value: 10.7 %); type: functional
[18] = tested on: U-118-MG; assay: Cell cycle arrest in human U-118-MG cells assessed as accumulation of cells at G2 phase at 30 uM incubated for 24 hrs by flow cytometric analysis (reference value: 30.6 %); type: functional
[19] = biological target: Tubulin (Homo sapiens) (UniProt P68371+Q9H4B7+P0DPH7+P68366+Q13509+Q71U36+P04350+Q3ZCM7+P07437+P68363+Q9BQE3+Q6PEY2+Q13885+Q9BVA1+Q9BUF5); assay: Disruption of tubulin polymerization in human U-118-MG cells at 3 to 20 uM by DAPI staining based immunofluorescence analysis; type: cell-based; conditions: dose 3-20 µM
[20] = Observed clearance in Sprague-Dawley rat at 5 mg/kg, ip; type: ADME, organism-based; conditions: in vivo
[21] = Half-life in Sprague-Dawley rat at 5 mg/kg, ip; type: ADME, organism-based; conditions: in vivo
[22] = Tmax in Sprague-Dawley rat at 5 mg/kg, ip; type: ADME, organism-based; conditions: in vivo
[23] = AUC (0 to 24 hrs) in Sprague-Dawley rat at 5 mg/kg, ip; type: ADME, organism-based; conditions: in vivo
[24] = Bioavailability in Sprague-Dawley rat at 5 mg/kg, ip; type: ADME, organism-based; conditions: in vivo
[25] = Drug distribution in Sprague-Dawley rat plasma at 5 mg/kg, ip measured after 0.5 hrs; type: ADME, organism-based
[26] = Drug distribution in Sprague-Dawley rat brain at 5 mg/kg, ip measured after 0.5 hrs; type: ADME, organism-based; conditions: read-out: Ct
[27] = Ratio of drug concentration in Sprague-Dawley rat brain to plasma at 5 mg/kg, ip measured after 0.5 hrs; type: ADME, organism-based; conditions: read-out: BPR
[28] = Drug distribution in Sprague-Dawley rat brain at 5 mg/kg, ip measured after 4 hrs; type: ADME, organism-based; conditions: read-out: Ct
[29] = Ratio of drug concentration in Sprague-Dawley rat brain to plasma at 5 mg/kg, ip measured after 4 hrs; type: ADME, organism-based; conditions: read-out: BPR
[30] = tested on: U-118-MG; assay: Antitumor activity against human U-118-MG cells xenografted in male BALB/c nude mouse assessed as tumor growth inhibition at 2.5 mg/kg, ip administered daily for 4 weeks relative to control; type: functional; conditions: 672 h, read-out: TGI
[31] = tested on: U-118-MG; assay: Antitumor activity against human U-118-MG cells xenografted in male BALB/c nude mouse assessed as tumor growth inhibition at 5 mg/kg, ip administered daily for 4 weeks relative to control; type: functional; conditions: 672 h, read-out: TGI
[32] = tested on: U-118-MG; assay: Antitumor activity against human U-118-MG cells xenografted in male BALB/c nude mouse assessed as tumor growth inhibition at 10 mg/kg, ip administered daily for 4 weeks relative to control; type: functional; conditions: 672 h, read-out: TGI
[33] = Toxicity in male BALB/c nude mouse xenografted with human U-118-MG cells assessed as body weight loss at 2.5 to 10 mg/kg, ip administered daily for 4 weeks; type: organism-based; conditions: in vivo, 672 h, dose 2.5-10 mg/kg
[34] = Toxicity in male BALB/c nude mouse xenografted with human U-118-MG cells assessed as effect on serum ALT level at 2.5 to 10 mg/kg, ip administered daily for 4 weeks; type: organism-based; conditions: in vivo, 672 h, dose 2.5-10 mg/kg
[35] = Toxicity in male BALB/c nude mouse xenografted with human U-118-MG cells assessed as effect on serum AST level at 2.5 to 10 mg/kg, ip administered daily for 4 weeks; type: organism-based; conditions: in vivo, 672 h, dose 2.5-10 mg/kg
[36] = Toxicity in male BALB/c nude mouse xenografted with human U-118-MG cells assessed as metastasis in heart at 2.5 to 10 mg/kg, ip administered daily for 4 weeks by H and E staining based analysis; type: organism-based; conditions: in vivo, 672 h, dose 2.5-10 mg/kg
[37] = Toxicity in male BALB/c nude mouse xenografted with human U-118-MG cells assessed as metastasis in spleen at 2.5 to 10 mg/kg, ip administered daily for 4 weeks by H and E staining based analysis; type: organism-based; conditions: in vivo, 672 h, dose 2.5-10 mg/kg
[38] = Toxicity in male BALB/c nude mouse xenografted with human U-118-MG cells assessed as metastasis in lung at 2.5 to 10 mg/kg, ip administered daily for 4 weeks by H and E staining based analysis; type: organism-based; conditions: in vivo, 672 h, dose 2.5-10 mg/kg

remaining at 48 h [1]: 86%
pIC50 [2]: 5.13
Activity [19]: Active
CL [20]: 135 mL/min/kg
half-life [21]: 5.64 h
Tmax [22]: 0.5 h
AUC [23]: 661 ng·h/mL
bioavailability [24]: 61.3%
concentration at 0.5 h [25]: 99.6 ng/mL
concentration at 0.5 h [26]: 35.4 ng/g
Kp at 0.5 h [27]: 0.349
concentration at 4 h [28]: 34.5 ng/g
Kp at 4 h [29]: 0.517
SMILES: COc1ccc2c(c1OC)C(=O)O[C@@H]2[C@H]1c2c(c(Br)c3c(c2OC)OCO3)CCN1C(F)(F)F
pIC50 [3]: 5.81
Activity [4]: Dose-dependent-effect
Activity [5]: Dose-dependent-effect
Activity [6]: 23.7%
Activity [7]: Active
Activity [8]: Active
inhibition [9]: Active
inhibition [10]: Active; Superior Inhibitory Activity Compared To Noscapine And Tmz
Activity [11]: 55.7%
Activity [12]: 10.4%
Activity [13]: 31.7%
Activity [14]: 32.1%
Activity [15]: 40%
Activity [16]: 29.5%
Activity [17]: 14.8%
Activity [18]: 52.2%
inhibition in vivo at 2.5 mg/kg [30]: 34.4%
inhibition in vivo at 5 mg/kg [31]: 37.7%
inhibition in vivo at 10 mg/kg [32]: 38.5%
Activity [33]: Non-toxic
Activity [34]: Non-toxic
Activity [35]: Non-toxic
Activity [36]: Non-toxic
Activity [37]: Non-toxic
Activity [38]: Non-toxic
